Laboratory results published in ChEMBL document CHEMBL1143953, “Novel 2-phenylquinolin-7-yl-derived imidazo[1,5-a]pyrazines as potent insulin-like growth factor-I receptor (IGF-IR) inhibitors” (Bioorg Med Chem, 2008).

How the values were obtained:
[1] = biological target: Cytochrome P450 3A4 (Homo sapiens, UniProt P08684); test: Inhibition of CYP3A4; assay type: ADME
[2] = biological target: Insulin-like growth factor 1 receptor (Homo sapiens, UniProt P08069)
Insulin-like growth factor 1 receptor, sequence (P08069 31-736 limits assumed): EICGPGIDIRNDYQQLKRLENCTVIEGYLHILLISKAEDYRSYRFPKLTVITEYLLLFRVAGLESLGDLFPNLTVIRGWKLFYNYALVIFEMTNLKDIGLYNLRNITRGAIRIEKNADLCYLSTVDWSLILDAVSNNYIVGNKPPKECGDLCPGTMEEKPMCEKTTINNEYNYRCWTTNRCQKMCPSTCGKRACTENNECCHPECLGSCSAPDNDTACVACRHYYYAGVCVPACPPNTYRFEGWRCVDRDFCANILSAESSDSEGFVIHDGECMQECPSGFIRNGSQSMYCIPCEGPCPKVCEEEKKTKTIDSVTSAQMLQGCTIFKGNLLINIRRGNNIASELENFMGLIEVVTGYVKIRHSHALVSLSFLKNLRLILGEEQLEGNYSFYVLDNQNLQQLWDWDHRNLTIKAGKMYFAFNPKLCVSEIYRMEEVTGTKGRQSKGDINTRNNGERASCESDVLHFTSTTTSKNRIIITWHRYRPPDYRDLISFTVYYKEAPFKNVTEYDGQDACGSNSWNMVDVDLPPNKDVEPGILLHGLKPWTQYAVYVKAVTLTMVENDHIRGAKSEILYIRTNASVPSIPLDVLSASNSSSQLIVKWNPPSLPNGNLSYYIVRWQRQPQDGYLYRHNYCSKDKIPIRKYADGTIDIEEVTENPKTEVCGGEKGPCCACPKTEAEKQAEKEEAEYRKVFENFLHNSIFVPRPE
Insulin-like growth factor 1 receptor, sequence (P08069 741-1367 limits assumed): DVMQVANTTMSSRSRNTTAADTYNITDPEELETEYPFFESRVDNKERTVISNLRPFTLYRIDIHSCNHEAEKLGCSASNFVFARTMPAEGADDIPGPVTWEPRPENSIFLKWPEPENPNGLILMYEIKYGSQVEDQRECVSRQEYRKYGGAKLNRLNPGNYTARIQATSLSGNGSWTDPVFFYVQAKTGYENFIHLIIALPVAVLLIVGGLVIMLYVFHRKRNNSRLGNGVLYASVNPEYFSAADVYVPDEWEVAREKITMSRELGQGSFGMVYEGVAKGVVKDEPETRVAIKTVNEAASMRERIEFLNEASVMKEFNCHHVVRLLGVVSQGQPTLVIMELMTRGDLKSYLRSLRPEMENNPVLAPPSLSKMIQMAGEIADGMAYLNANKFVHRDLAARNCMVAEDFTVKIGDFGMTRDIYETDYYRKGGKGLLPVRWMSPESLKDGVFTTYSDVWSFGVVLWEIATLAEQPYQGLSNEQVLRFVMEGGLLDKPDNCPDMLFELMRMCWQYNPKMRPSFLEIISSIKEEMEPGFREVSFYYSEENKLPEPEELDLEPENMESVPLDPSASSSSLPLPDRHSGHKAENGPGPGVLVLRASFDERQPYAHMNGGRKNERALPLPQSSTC
Description: Inhibition of human recombinant full length IGF1R expressed in mouse 3T3 cells

Cytochrome P450 3A4, sequence (P08684 whole entry): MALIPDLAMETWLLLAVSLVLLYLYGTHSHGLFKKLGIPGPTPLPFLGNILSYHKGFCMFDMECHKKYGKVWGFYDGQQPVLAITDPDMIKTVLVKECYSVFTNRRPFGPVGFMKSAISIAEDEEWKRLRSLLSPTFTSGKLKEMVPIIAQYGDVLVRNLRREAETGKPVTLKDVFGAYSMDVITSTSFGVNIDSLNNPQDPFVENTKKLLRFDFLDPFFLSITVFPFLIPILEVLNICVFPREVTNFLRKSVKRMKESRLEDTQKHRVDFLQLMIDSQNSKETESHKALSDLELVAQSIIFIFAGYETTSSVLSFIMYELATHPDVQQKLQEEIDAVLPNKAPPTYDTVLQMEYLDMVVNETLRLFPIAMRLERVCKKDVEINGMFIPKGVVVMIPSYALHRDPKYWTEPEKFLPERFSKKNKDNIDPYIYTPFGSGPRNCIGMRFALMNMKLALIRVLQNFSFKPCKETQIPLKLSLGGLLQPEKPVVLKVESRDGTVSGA

IC50 [1] [µM]	IC50 [2] [µM]	Structure (SMILES)
15		CN(C)C[C@H]1C[C@@H](c2nc(-c3ccc4ccc(-c5ccccc5)nc4c3)c3c(N)nccn32)C1
3.4		Nc1nccn2c(C3CCC3)nc(-c3ccc4ccc(-c5ccccc5)nc4c3)c12
> 20		Nc1nccn2c1c(-c1ccc3ccc(-c4ccccc4)nc3c1)nc2[C@H]1C[C@@H](N2CCC2)C1

Second part, the molecule before the results:

Structure (SMILES)	IC50 [1] [µM]	IC50 [2] [µM]
Nc1nccn2c1c(-c1ccc3ccc(-c4ccccc4)nc3c1)nc2[C@H]1C[C@@H](N2CCCC2)C1	17	
Nc1nccn2c1c(-c1ccc3ccc(-c4ccccc4)nc3c1)nc2[C@H]1C[C@@H](N2CCSCC2)C1	7.8	
Oc1nccn2c(C3CCC3)nc(-c3ccc4ccc(-c5ccccc5)nc4c3)c12		> 10
Nc1nccn2c1c(-c1ccc3ccc(-c4ccccc4)nc3c1)nc2[C@H]1C[C@@H](N2CCOCC2)C1	12	
